For 23 compounds, T/C results are on record in PubChem BioAssay AID330 (DTP/NCI, 2004).

Each structure is given as a SMILES string. Values joined by “and” are separate entries in the source; they are usually repeats but may differ in a detail not shown here. Equal values may be shown once. Inconclusive results and toxic doses are left out.

In the experiment the test system is P388 leukemia ip, CD2F1 mice, survival T/C. Put plainly: NCI In Vivo Anticancer Drug Screen. Data for tumor model P388 Leukemia (intraperitoneal) in CD2F1 (CDF1) mice. The conditions noted are these: endpoint: median survival time, higher = longer survival. Summed up:
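Mice carrying the transplanted tumor received test compound or vehicle. Survival was recorded in each group, and the value is the treated-group measurement divided by that of the vehicle-treated control group.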

Where [1] appears, read: dose: 100.0 mg/kg/injection, schedule: Q04DX002 (ip), vehicle: saline.
The mark [2] stands for this setting: dose: 200.0 mg/kg/injection, schedule: Q04DX002 (ip), vehicle: saline.
[3] abbreviates: dose: 400.0 mg/kg/injection, schedule: Q04DX002 (ip), vehicle: saline.
Setting [4] is: dose: 60.0 mg/kg/injection, schedule: Q01DX005 (ip), vehicle: saline.
[5] abbreviates: dose: 120.0 mg/kg/injection, schedule: Q01DX005 (ip), vehicle: saline.
Setting [6] is: dose: 240.0 mg/kg/injection, schedule: Q01DX005 (ip), vehicle: saline.
Setting [7] is: dose: 25.0 mg/kg/injection, schedule: Q01DX009 (ip), vehicle: saline with Tween-80.
Setting [8] is: dose: 50.0 mg/kg/injection, schedule: Q01DX009 (ip), vehicle: saline with Tween-80.
Setting [9] is: dose: 100.0 mg/kg/injection, schedule: Q01DX009 (ip), vehicle: saline with Tween-80.
The mark [10] stands for this setting: dose: 200.0 mg/kg/injection, schedule: Q01DX009 (ip), vehicle: saline with Tween-80.
[11] abbreviates: dose: 100.0 mg/kg/injection, schedule: Q04DX003 (ip), vehicle: saline with Tween-80.
[12] abbreviates: dose: 60.0 mg/kg/injection, schedule: Q01DX005 (ip), vehicle: Klucel (hydroxypropylcellulose) (HPC).
Where [13] appears, read: dose: 120.0 mg/kg/injection, schedule: Q01DX005 (ip), vehicle: Klucel (hydroxypropylcellulose) (HPC).
Setting [14] is: dose: 240.0 mg/kg/injection, schedule: Q01DX005 (ip), vehicle: Klucel (hydroxypropylcellulose) (HPC).
[15] abbreviates: dose: 60.0 mg/kg/injection, schedule: Q01DX005 (ip), vehicle: saline with Tween-80.
Setting [16] is: dose: 120.0 mg/kg/injection, schedule: Q01DX005 (ip), vehicle: saline with Tween-80.
The mark [17] stands for this setting: dose: 240.0 mg/kg/injection, schedule: Q01DX005 (ip), vehicle: saline with Tween-80.

As to `CCn1cc(C(=O)O)c(=O)c2ccc(C)[n+](C)c21`, the T/C was 99 % of control under setting [1], 100 % of control under setting [2] and 98 % of control under setting [3].

With `C[O][Sn]([CH3])([CH3])[O][Sn]([CH3])([CH3])[Cl]`, the T/C (dose: 6.25 mg/kg/injection, schedule: Q04DX003 (ip), vehicle: saline) was 103 % of control and 106 % of control; the T/C (dose: 12.5 mg/kg/injection, schedule: Q04DX003 (ip), vehicle: saline) was 100 % of control and 101 % of control and 96 % of control; the T/C (dose: 25.0 mg/kg/injection, schedule: Q04DX003 (ip), vehicle: saline) is 99 % of control and 100 % of control and 109 % of control; the T/C (dose: 50.0 mg/kg/injection, schedule: Q04DX003 (ip), vehicle: saline) was 102 % of control and 120 % of control and 97 % of control.

As for `Cc1cccc(C2(C)C(=O)c3ccccc3C2=O)c1`, the T/C is 100 % of control under setting [1], 105 % of control under setting [2] and 102 % of control under setting [3].

As for `O=C(N1CCC(CCCC2CCN(C(=O)C(F)(F)C(F)(F)C(F)(F)C(F)(F)C(F)(F)C(F)(F)C(F)(F)F)CC2)CC1)C(F)(F)C(F)(F)C(F)(F)C(F)(F)C(F)(F)C(F)(F)C(F)(F)F`, the T/C is 98 % of control (dose: 50.0 mg/kg/injection, schedule: Q01DX009 (ip), vehicle: saline); 96 % of control (dose: 100.0 mg/kg/injection, schedule: Q01DX009 (ip), vehicle: saline); 95 % of control (dose: 200.0 mg/kg/injection, schedule: Q01DX009 (ip), vehicle: saline).

With `NC(=O)C12OC3CC(CC(C3)O1)O2`, the T/C by setting is: under setting [4], 117 % of control; under setting [5], 98 % of control; under setting [6], 99 % of control.

Consider `Cc1cc2c(c3ccccc13)C(=N/N=C(N)N)/C(=N/N=C(N)N)C2`, for which the T/C is, setting by setting: (dose: 6.25 mg/kg/injection, schedule: Q01DX009 (ip), vehicle: saline with Tween-80) 101 % of control; (dose: 12.5 mg/kg/injection, schedule: Q01DX009 (ip), vehicle: saline with Tween-80) 108 % of control; (dose: 25.0 mg/kg/injection, schedule: Q01DX001 (ip), vehicle: saline with Tween-80) 105 % of control; under setting [7], 101 % of control; (dose: 50.0 mg/kg/injection, schedule: Q01DX001 (ip), vehicle: saline with Tween-80) 97 % of control.

`COc1cc(C(=O)NC2CC2)cc(OC)c1OC`: the T/C is, setting by setting: under setting [7], 101 % of control; under setting [8], 104 % of control; under setting [9], 107 % of control; under setting [10], 110 % of control.

Take `O=S(=O)(F)/C=C/c1ccccc1`: the T/C is 109 % of control under setting [8] and 109 % of control under setting [9].

For the compound `Cc1nc2c([N+](=O)[O-])c(Nc3ccc(O)cc3)c([N+](=O)[O-])cc2[nH]1`, the T/C is 99 % of control under setting [11]; 92 % of control (dose: 200.0 mg/kg/injection, schedule: Q04DX003 (ip), vehicle: saline with Tween-80); 92 % of control (dose: 400.0 mg/kg/injection, schedule: Q04DX003 (ip), vehicle: saline with Tween-80).

For the compound `Cc1cc(NS(=O)(=O)c2ccc(N)cc2)no1`, the T/C (dose: 25.0 mg/kg/injection, schedule: Q01DX005 (ip), vehicle: saline) is 106 % of control; the T/C (dose: 50.0 mg/kg/injection, schedule: Q01DX005 (ip), vehicle: saline) was 103 % of control; the T/C (dose: 100.0 mg/kg/injection, schedule: Q01DX005 (ip), vehicle: saline) was 114 % of control; the T/C (dose: 200.0 mg/kg/injection, schedule: Q01DX005 (ip), vehicle: saline) was 101 % of control; the T/C (dose: 400.0 mg/kg/injection, schedule: Q01DX005 (ip), vehicle: saline) is 97 % of control.

On to `O=C(O)C1CCC[N-]1.[Cl][Pt][Cl]` (centres undefined), for which the T/C runs as follows: (dose: 25.0 mg/kg/injection, schedule: Q04DX003 (ip), vehicle: water) 110 % of control; (dose: 50.0 mg/kg/injection, schedule: Q04DX003 (ip), vehicle: water) 94 % of control; (dose: 100.0 mg/kg/injection, schedule: Q04DX003 (ip), vehicle: saline) 157 % of control; (dose: 150.0 mg/kg/injection, schedule: Q04DX003 (ip), vehicle: saline) 157 % of control.

Take `CCn1cnc(CC(NC(=O)C(F)(F)F)C(=O)O)c1` (centres undefined): the T/C was 94 % of control (dose: 50.0 mg/kg/injection, schedule: Q01DX009 (ip), vehicle: Klucel (hydroxypropylcellulose) (HPC)); 100 % of control (dose: 100.0 mg/kg/injection, schedule: Q01DX009 (ip), vehicle: Klucel (hydroxypropylcellulose) (HPC)); 98 % of control (dose: 200.0 mg/kg/injection, schedule: Q01DX009 (ip), vehicle: Klucel (hydroxypropylcellulose) (HPC)).

In the case of `c1ccc(-c2nnc3sc4ccccc4n23)cc1`, the T/C under setting [12] is 105 % of control, the T/C under setting [13] is 96 % of control and the T/C under setting [14] was 94 % of control.

As for `CCN(CC)CCOC(=O)/C=C/c1ccccc1`, the T/C runs as follows: under setting [4], 106 % of control; under setting [5], 107 % of control; under setting [6], 102 % of control.

For the compound `CCCC/C([O-])=C1/C(=O)N(c2ccccc2)N=C1C.CCCC/C([O-])=C1/C(=O)N(c2ccccc2)N=C1C.[Cu+2]`, the T/C under setting [15] was 90 % of control, the T/C under setting [16] was 97 % of control and the T/C under setting [17] is 96 % of control.

Regarding `O=C1NC(=Nc2ccccc2)N(c2ccccc2)C1=Nc1ccccc1`, the T/C runs as follows: under setting [8], 88 % of control; under setting [9], 91 % of control; under setting [10], 86 % of control.

Take `CC(C)=NNC1=NC(CC(C)C)P(=O)(NCCCCCCNP2(=O)SC(NN=C(C)C)=NC2CC(C)C)S1` (centres undefined): the T/C runs as follows: under setting [12], 97 % of control; under setting [13], 103 % of control; under setting [14], 95 % of control.

With `CC(C)=Cc1cc(-c2cc(C=C(C)C)nc(N)n2)nc(N)n1`, the T/C was 97 % of control under setting [4] and 94 % of control under setting [5].

As to `CC(=O)NC1=C(O)C2C(c3ccc(Cl)cc3)C(C#N)C(=O)N2C1=O` (centres undefined), the T/C is, setting by setting: (dose: 100.0 mg/kg/injection, schedule: Q01DX001 (ip), vehicle: saline) 100 % of control; (dose: 200.0 mg/kg/injection, schedule: Q01DX001 (ip), vehicle: saline) 103 % of control; (dose: 400.0 mg/kg/injection, schedule: Q01DX001 (ip), vehicle: saline) 98 % of control.

`Cc1cccc(Nc2c(N)nc(N)nc2N)c1`: the T/C was 100 % of control under setting [7]; 100 % of control (dose: 25.0 mg/kg/injection, schedule: Q04DX003 (ip), vehicle: saline with Tween-80); 109 % of control under setting [8]; 100 % of control (dose: 50.0 mg/kg/injection, schedule: Q04DX003 (ip), vehicle: saline with Tween-80); 104 % of control and 118 % of control under setting [11].

As for `CCN(CC)CC(C)(C)C(=O)/C=C/c1ccc(Cl)c(Cl)c1`, the T/C runs as follows: (dose: 7.5 mg/kg/injection, schedule: Q01DX005 (ip), vehicle: saline) 102 % of control; (dose: 15.0 mg/kg/injection, schedule: Q01DX005 (ip), vehicle: saline) 101 % of control; (dose: 30.0 mg/kg/injection, schedule: Q01DX005 (ip), vehicle: saline) 112 % of control; under setting [4], 110 % of control; under setting [5], 118 % of control; under setting [6], 109 % of control.

With `CCOC(=O)N1c2ccccc2SC1C#N` (centres undefined), the T/C reads like this: under setting [15], 97 % of control; under setting [16], 92 % of control; under setting [17], 105 % of control.

On to `c1cc2n3c1CCc1ccc(n1CC3)CC2`, for which the T/C (dose: 8.0 mg/kg/injection, schedule: Q01DX009 (ip), vehicle: saline with Tween-80) is 100 % of control; the T/C (dose: 16.0 mg/kg/injection, schedule: Q01DX009 (ip), vehicle: saline with Tween-80) is 100 % of control; the T/C (dose: 32.0 mg/kg/injection, schedule: Q01DX009 (ip), vehicle: saline with Tween-80) is 100 % of control.
